According to patent publication US12679878B2, “CRF2 receptor agonists and their use in therapy” (SANOFI, priority 2020, dated 2026):
Like-named read-outs stand apart in the source and are kept apart here. Starred links: 1 amine or outer side, 2 acyl side, 3 side chain; linkers in the order of their positions; H or OH if unused. Non-standard residues stand in square brackets, D forms with d. Residues, ends and D or L forms follow the SMILES beside them. Groups on a side chain read outwards from the residue. *: point of attachment. C18 diacid = O=C(O)CCCCCCCCCCCCCCCCC(=O)*; γGlu = O=C(O)[C@H](CCC(=O)[*:2])N[*:1]; Palmitoyl = CCCCCCCCCCCCCCCC(=O)*; AEEA = NCCOCCOCC(=O)O; Aib = CC(C)(N)C(=O)O

How the values were obtained:
Format in all cases: cell-based
[1] = biological target: T1, human CRF2α receptor (Homo sapiens, UniProt Q13324); assay: cAMP agonism at human CRF2 α receptor in TeloHEAC cells (Example 7); conditions: cAMP HTRF, TeloHEAC cells stably expressing human CRF2 α
T1 construct: expressed in transfected cells; host or cells: TeloHEAC
T1 sequence (Q13324 1-411): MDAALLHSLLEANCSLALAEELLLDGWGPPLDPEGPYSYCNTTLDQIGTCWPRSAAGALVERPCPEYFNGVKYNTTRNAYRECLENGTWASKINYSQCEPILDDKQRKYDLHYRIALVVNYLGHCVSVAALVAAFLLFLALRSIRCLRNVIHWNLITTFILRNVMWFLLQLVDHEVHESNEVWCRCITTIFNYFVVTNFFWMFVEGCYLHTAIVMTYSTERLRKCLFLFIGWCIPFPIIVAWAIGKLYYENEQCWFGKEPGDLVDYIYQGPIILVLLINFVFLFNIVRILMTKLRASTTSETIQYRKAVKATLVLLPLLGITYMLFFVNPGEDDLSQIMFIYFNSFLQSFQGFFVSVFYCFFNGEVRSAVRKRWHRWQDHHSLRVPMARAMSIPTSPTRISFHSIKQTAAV
How it was run: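 Percent activation was referenced to 1000 nM UCN2 (100%), and EC50 values taken as concentrations giving half of maximal response. The read-out was a homogeneous time-resolved fluorescence cAMP kit, fluorescence ratio 665/620 nm. Thawed cells (2000/well) saw compound for 30 min at RT in buffer with 2 mM IBMX and 0%/0.1% HSA.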

[2] = tested on: rat CRF2R α receptor; assay: cAMP agonism at rat CRF2R α receptor in A7R5 rat aortic smooth muscle cells (Example 8); conditions: cAMP HTRF, A7R5 rat aortic smooth muscle cell line, 0% HSA
How it was run: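 Potency (EC50) is the concentration reaching half-maximal activation, with responses scaled so that 1000 nM urocortin 2 equals 100%. Intracellular cAMP was quantified by homogeneous time-resolved fluorescence at 665/620 nm, 1 h after lysis-buffer reagents. Compound stimulation lasted 30 min at room temperature on 2000 IBMX-treated (2 mM) cells per well in HEPES-buffered HBSS.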

[3] = biological target: T2, CRF1R receptor (Homo sapiens, UniProt P34998); assay: cAMP activity at anti-target CRF1R, CRF1R-overexpression CHO cell line (Example 9); conditions: for EC50: 0% HSA
T2 construct: host or cells: CHO-K1 clone 2
T2 sequence (P34998 24-415): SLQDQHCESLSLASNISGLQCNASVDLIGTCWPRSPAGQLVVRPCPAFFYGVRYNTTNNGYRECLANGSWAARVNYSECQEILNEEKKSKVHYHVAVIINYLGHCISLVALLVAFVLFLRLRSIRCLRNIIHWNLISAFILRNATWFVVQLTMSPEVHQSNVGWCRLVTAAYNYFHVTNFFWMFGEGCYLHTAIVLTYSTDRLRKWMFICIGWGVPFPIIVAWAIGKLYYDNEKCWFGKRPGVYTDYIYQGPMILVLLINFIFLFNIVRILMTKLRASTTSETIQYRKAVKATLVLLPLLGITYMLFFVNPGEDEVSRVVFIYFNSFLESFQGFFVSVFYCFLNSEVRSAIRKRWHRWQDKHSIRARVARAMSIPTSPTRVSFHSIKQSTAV
How it was run: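 Using thawed CRF1R-overexpressing CHO cells at 2000 per well, compound is applied for 30 min at RT in HBSS/HEPES buffer with IBMX. Cellular cAMP content is determined via HTRF, and percent activity is calculated against 1000 nM UCN2 defined as 100%.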

[4] = 0% HSA, read-out: EC50 [nM], 0% HSA
[5] = CRF1R-overexpression CHO cell line
[6] = CRF1R-overexpression CHO cell line, read-out: Emax (%)
[7] = 0.1% HSA, read-out: EC50 [nM], 0.1% HSA

EC50 [1, 4] [nM] | EC50 [2] [nM] | EC50 [3, 5] [nM] | Emax [3, 6] [%] | Structure (SMILES) | EC50 [1, 7] [nM] | Emax ([3]; CHO) [%]
0.02 | 0.01 | > 1000 | 12.7 | CCCCCCCCCCCCCCCC(=O)N[C@@H](CCC(=O)NCCCC[C@H](NC(=O)[C@@H](NC(=O)[C@H](CCCCN)NC(=O)[C@@H](NC(=O)[C@@H]1CCCN1C(=O)[C@@H](NC(=O)[C@H](CC(=O)O)NC(=O)[C@H](CC(C)C)NC(=O)[C@H](CO)NC(=O)[C@H](CC(C)C)NC(=O)[C@@H](NC(=O)[C@@H](N)Cc1ccccc1)[C@@H](C)O)C(C)C)[C@@H](C)O)[C@@H](C)CC)C(=O)N[C@@H](CCC(N)=O)C(=O)N[C@@H](CCCCN)C(=O)N[C@@H](CC(C)C)C(=O)N[C@@H](CC(C)C)C(=O)N[C@@H](CCCCN)C(=O)N[C@@H](CCC(N)=O)C(=O)N[C@@H](CCC(=O)O)C(=O)N[C@@H](CCCCN)C(=O)N[C@@H](CCC(N)=O)C(=O)N[C@@H](CCCCN)C(=O)N[C@@H](CCCCN)C(=O)N[C@@H](CCC(N)=O)C(=O)N[C@@H](CCCNC(=N)N)C(=O)N[C@@H](CCC(N)=O)C(=O)N[C@@H](CCCCN)C(=O)N[C@@H](C)C(=O)N[C@@H](CCCCN)C(=O)N[C@H](C(=O)N[C@@H](CC(N)=O)C(=O)N[C@@H](C)C(=O)N[C@@H](CCC(N)=O)C(=O)N[C@H](C(=O)N[C@@H](CC(C)C)C(=O)N[C@@H](C)C(=O)N[C@@H](CCC(N)=O)C(=O)N[C@H](C(N)=O)C(C)C)[C@@H](C)CC)[C@@H](C)O)C(=O)O [compound 11] (H-FTLSLDVPTKIK([γGlu-Palmitoyl])QKLLKQEKQKKQRQKAKTNAQILAQV-NH2) | – | –
0.88 | 1.38 | > 1000 | 7.75 | CCCCCCCCCCCCCCCC(=O)N[C@@H](CCC(=O)NCCCC[C@H](NC(=O)[C@@H](NC(=O)[C@H](CCCCN)NC(=O)[C@@H](NC(=O)[C@@H]1CCCN1C(=O)[C@@H](NC(=O)[C@H](CC(=O)O)NC(=O)[C@H](CC(C)C)NC(=O)[C@H](CO)NC(=O)[C@H](CC(C)C)NC(=O)[C@@H](NC(=O)[C@@H](N)Cc1ccccc1)[C@@H](C)O)C(C)C)[C@@H](C)O)[C@@H](C)CC)C(=O)N[C@@H](CCC(N)=O)C(=O)N[C@@H](CCCCN)C(=O)N[C@@H](CC(C)C)C(=O)N[C@@H](Cc1ccccc1)C(=O)N[C@@H](CCCCN)C(=O)N[C@@H](CCC(N)=O)C(=O)N[C@@H](C)C(=O)N[C@@H](CCCCN)C(=O)N[C@@H](CCC(N)=O)C(=O)N[C@@H](CCCCN)C(=O)N[C@@H](CCCCN)C(=O)N[C@@H](CCC(N)=O)C(=O)N[C@@H](CCCNC(=N)N)C(=O)N[C@@H](CCC(N)=O)C(=O)N[C@@H](CCCCN)C(=O)N[C@@H](C)C(=O)N[C@@H](CCCCN)C(=O)N[C@H](C(=O)N[C@@H](CC(N)=O)C(=O)N[C@@H](C)C(=O)N[C@@H](CCC(N)=O)C(=O)N[C@H](C(=O)N[C@@H](CC(C)C)C(=O)N[C@@H](C)C(=O)N[C@@H](CCCNC(=N)N)C(=O)N[C@H](C(N)=O)C(C)C)[C@@H](C)CC)[C@@H](C)O)C(=O)O [compound 15] (H-FTLSLDVPTKIK([γGlu-Palmitoyl])QKLFKQAKQKKQRQKAKTNAQILARV-NH2; N-terminus assumed) | – | –
0.52 | 8.97 | > 1000 | 5.88 | CC[C@H](C)[C@H](N)C(=O)N[C@H](C(=O)N[C@@H](CC(C)C)C(=O)N[C@@H](CO)C(=O)N[C@@H](CC(C)C)C(=O)N[C@@H](CC(=O)O)C(=O)N[C@H](C(=O)N1CCC[C@H]1C(=O)N[C@H](C(=O)N[C@@H](CCCCN)C(=O)N[C@@H](CC(C)C)C(=O)N[C@@H](CCCCNC(=O)COCCOCCNC(=O)COCCOCCNC(=O)CC[C@H](NC(=O)CCCCCCCCCCCCCCCCC(=O)O)C(=O)O)C(=O)N[C@@H](CCC(N)=O)C(=O)N[C@H](C(=O)N[C@@H](CC(C)C)C(=O)N[C@@H](CC(C)C)C(=O)N[C@@H](CCC(=O)O)C(=O)N[C@@H](CCC(N)=O)C(=O)N[C@@H](C)C(=O)N[C@@H](CCCCN)C(=O)N[C@@H](CCC(N)=O)C(=O)N[C@@H](CCCCN)C(=O)NC(C)(C)C(=O)N[C@@H](CC(C)C)C(=O)N[C@@H](CCCNC(=N)N)C(=O)N[C@@H](C)C(=O)N[C@@H](CCC(N)=O)C(=O)N[C@@H](C)C(=O)N[C@@H](CCC(=O)O)C(=O)N[C@H](C(=O)N[C@@H](CC(N)=O)C(=O)N[C@H](C(=O)N[C@@H](CCCNC(=N)N)C(=O)N[C@H](C(=O)N[C@@H](CC(C)C)C(=O)N[C@@H](CCC(=O)O)C(=O)N[C@@H](CCCNC(=N)N)C(=O)N[C@H](C(N)=O)C(C)C)[C@@H](C)CC)C(C)C)[C@@H](C)O)[C@@H](C)CC)[C@@H](C)CC)C(C)C)C(C)C [compound 46] (H-IVLSLDVPIKLK([AEEA-AEEA-γGlu-C18 diacid])QILLEQAKQK[Aib]LRAQAETNVRILERV-NH2; N-terminus assumed) | – | –
0.7 | 0.76 | > 1000 | 5.3 | CC[C@H](C)[C@H](NC(=O)[C@H](CCC(N)=O)NC(=O)[C@H](CCCCNC(=O)COCCOCCNC(=O)COCCOCCNC(=O)CC[C@H](NC(=O)CCCCCCCCCCCCCCCCC(=O)O)C(=O)O)NC(=O)[C@@H](NC(=O)[C@H](CCCCN)NC(=O)[C@@H](NC(=O)[C@@H]1CCCN1C(=O)[C@@H](NC(=O)[C@H](CC(=O)O)NC(=O)[C@H](CC(C)C)NC(=O)[C@H](CO)NC(=O)[C@H](CC(C)C)NC(=O)[C@@H](NC(=O)[C@@H](N)Cc1ccccc1)[C@@H](C)O)C(C)C)[C@@H](C)O)[C@@H](C)CC)C(=O)N[C@@H](CC(C)C)C(=O)N[C@@H](CC(C)C)C(=O)N[C@@H](CCCCN)C(=O)N[C@@H](CCC(N)=O)C(=O)N[C@@H](CCC(N)=O)C(=O)N[C@@H](CCCCN)C(=O)N[C@@H](CCC(N)=O)C(=O)N[C@@H](CCCCN)C(=O)N[C@@H](CCCCN)C(=O)N[C@@H](CCC(=O)O)C(=O)N[C@@H](CCCNC(=N)N)C(=O)N[C@@H](CCC(N)=O)C(=O)N[C@@H](CCC(N)=O)C(=O)N[C@@H](C)C(=O)N[C@@H](CCC(=O)O)C(=O)N[C@@H](CCCCN)C(=O)N[C@@H](CC(N)=O)C(=O)N[C@@H](CCCCN)C(=O)N[C@@H](CCC(N)=O)C(=O)N[C@@H](CC(C)C)C(=O)N[C@@H](CC(C)C)C(=O)N[C@@H](CCC(=O)O)C(=O)N[C@@H](CCCNC(=N)N)C(=O)N[C@H](C(N)=O)C(C)C [compound 52] (H-FTLSLDVPTKIK([AEEA-AEEA-γGlu-C18 diacid])QILLKQQKQKKERQQAEKNKQLLERV-NH2; N-terminus assumed) | 45.8 | –

Structure (SMILES) | EC50 [1, 4] [nM] | EC50 [2] [nM] | EC50 [3, 5] [nM] | Emax [3, 6] [%] | EC50 [1, 7] [nM] | Emax ([3]; CHO) [%]
CC[C@H](C)[C@H](NC(=O)[C@H](CCC(N)=O)NC(=O)[C@H](CCC(=O)O)NC(=O)[C@H](CC(C)C)NC(=O)[C@H](CC(C)C)NC(=O)[C@H](CCC(N)=O)NC(=O)[C@H](CCCCN)NC(=O)[C@H](CC(N)=O)NC(=O)[C@H](CCCCN)NC(=O)[C@H](CCC(=O)O)NC(=O)[C@H](C)NC(=O)[C@H](CCC(N)=O)NC(=O)[C@H](CCC(N)=O)NC(=O)[C@H](CCCNC(=N)N)NC(=O)[C@H](CCC(=O)O)NC(=O)[C@H](CCCCN)NC(=O)[C@H](CCCCN)NC(=O)[C@H](CCC(N)=O)NC(=O)[C@H](CCCCN)NC(=O)[C@H](CCC(N)=O)NC(=O)[C@H](CCC(N)=O)NC(=O)[C@H](CCCCN)NC(=O)[C@H](Cc1ccccc1)NC(=O)[C@H](CC(C)C)NC(=O)[C@@H](NC(=O)[C@H](CCC(N)=O)NC(=O)[C@H](CCCCNC(=O)COCCOCCNC(=O)COCCOCCNC(=O)CC[C@H](NC(=O)CCCCCCCCCCCCCCCCC(=O)O)C(=O)O)NC(=O)[C@@H](NC(=O)[C@H](CCCCN)NC(=O)[C@@H](NC(=O)[C@@H]1CCCN1C(=O)[C@@H](NC(=O)[C@H](CC(=O)O)NC(=O)[C@H](CC(C)C)NC(=O)[C@H](CO)NC(=O)[C@H](CC(C)C)NC(=O)[C@@H](NC(=O)[C@@H](N)Cc1ccccc1)[C@@H](C)O)C(C)C)[C@@H](C)O)[C@@H](C)CC)[C@@H](C)CC)C(N)=O [compound 13] (H-FTLSLDVPTKIK([AEEA-AEEA-γGlu-C18 diacid])QILFKQQKQKKERQQAEKNKQLLEQI-NH2; N-terminus assumed) | 0.98 | 2.5 | – | – | 64.1 | 4.3
